Source: the supplement of paper PMC10307832

Each cell line was assayed with N[C@@H]1CCCN(c2c(/C=C3\SC(=O)NC3=O)cccc2-c2ccccc2)C1 [AZD1208] + CCNC(=O)c1noc(-c2cc(C(C)C)c(O)cc2O)c1-c1ccc(CN2CCOCC2)cc1 [Luminespib] (partner 0.01 µM) (assay: relative viability (nuclei count vs DMSO), 5 days (fraction); higher = more cells survive). Conditions: first compound 0.08 µM.
How it was run: (§1)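 Five library-drug doses in √10 steps were combined with a fixed anchor-drug dose, or a single drug was given alone, by pin tool to lung cancer cell lines in 1536-well plates the day after seeding. Nuclei were stained and counted after 5 days. Relative viability is the nuclei count in treated wells over that in vehicle wells, taken as the median of duplicate plates.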
NCI-H1975 was tested, and the relative viability was 0.235.
In the case of SK-LU-1, the relative viability is reported as 0.186.
For NCI-H358, the relative viability was 0.38.
NCI-H661 was tested, and the relative viability was 0.977.
For RERF-LC-KJ, the relative viability was 1.13.

Same assay, conditions: first compound 0.253 µM
NCI-H1793 was tested, and the relative viability was 0.17.
Work on PC-3 [JPC-3] yielded a relative viability of 0.7.
Cell Line EKVX has a relative viability of 0.845.
Cell Line LC-2-ad has a relative viability of 0.984.
For NCI-H1944, the relative viability was 0.711.
Cell Line NCI-H1975 has a relative viability of 0.296.
SK-LU-1 gave a relative viability of 0.198.
Work on NCI-H358 yielded a relative viability of 0.307.
With NCI-H661 the relative viability was 1.02.
Work on RERF-LC-KJ yielded a relative viability of 1.22.

Same assay, conditions: first compound 0.8 µM
With NCI-H1793 the relative viability was 0.14.
PC-3 [JPC-3] showed a relative viability of 0.706.
Work on EKVX yielded a relative viability of 0.888.
Work on LC-2-ad yielded a relative viability of 0.968.
NCI-H1944 gave a relative viability of 0.548.
NCI-H1975 gave a relative viability of 0.2.
SK-LU-1 showed a relative viability of 0.194.
Work on NCI-H358 yielded a relative viability of 0.514.
Cell Line NCI-H661 has a relative viability of 0.955.
RERF-LC-KJ gave a relative viability of 1.14.

Same assay, conditions: first compound 2.53 µM
NCI-H1793 showed a relative viability of 0.176.
With PC-3 [JPC-3] the relative viability was 0.693.
In the case of EKVX, the relative viability is reported as 0.804.
LC-2-ad showed a relative viability of 0.962.
NCI-H1944 showed a relative viability of 0.557.
Cell Line NCI-H1975 has a relative viability of 0.228.
SK-LU-1 was tested, and the relative viability was 0.226.
Cell Line NCI-H358 has a relative viability of 0.319.
Work on NCI-H661 yielded a relative viability of 0.939.
In the case of RERF-LC-KJ, the relative viability is reported as 1.07.

Same assay, conditions: first compound 8 µM
With NCI-H1793 the relative viability was 0.152.
For PC-3 [JPC-3], the relative viability was 0.588.
In the case of EKVX, the relative viability is reported as 0.924.
LC-2-ad showed a relative viability of 1.02.
Cell Line NCI-H1944 has a relative viability of 0.346.
Cell Line NCI-H1975 has a relative viability of 0.18.
Cell Line SK-LU-1 has a relative viability of 0.198.
With NCI-H358 the relative viability was 0.122.
Cell Line NCI-H661 has a relative viability of 0.998.
RERF-LC-KJ was tested, and the relative viability was 0.838.

These cell lines were tested with N[C@@H]1CCCN(c2c(/C=C3\SC(=O)NC3=O)cccc2-c2ccccc2)C1 [AZD1208] + C[C@]1(O)C[C@@H](c2nc(-c3ccc4ccc(-c5ccccc5)nc4c3)c3c(N)nccn32)C1 [Linsitinib] (partner 1 µM) in the same assay as above. Conditions: first compound 0.08 µM.
How it was run: as §1
With NCI-H1793 the relative viability was 0.765.
In the case of PC-3 [JPC-3], the relative viability is reported as 1.05.
Work on EKVX yielded a relative viability of 0.996.
With LC-2-ad the relative viability was 0.803.
NCI-H1944 gave a relative viability of 1.14.
In the case of NCI-H1975, the relative viability is reported as 0.991.
Work on SK-LU-1 yielded a relative viability of 1.
Cell Line NCI-H358 has a relative viability of 0.675.
With NCI-H661 the relative viability was 0.505.
RERF-LC-KJ gave a relative viability of 0.892.

Same assay, conditions: first compound 0.253 µM
With NCI-H1793 the relative viability was 0.804.
PC-3 [JPC-3] showed a relative viability of 1.01.
EKVX gave a relative viability of 1.19.
With LC-2-ad the relative viability was 0.673.
In the case of NCI-H1944, the relative viability is reported as 1.19.
NCI-H1975 showed a relative viability of 1.
Work on SK-LU-1 yielded a relative viability of 1.21.
NCI-H358 gave a relative viability of 0.604.
With NCI-H661 the relative viability was 0.568.
Cell Line RERF-LC-KJ has a relative viability of 0.883.

Same assay, conditions: first compound 0.8 µM
Work on NCI-H1793 yielded a relative viability of 0.564.
PC-3 [JPC-3] gave a relative viability of 1.02.
EKVX showed a relative viability of 0.917.
Cell Line LC-2-ad has a relative viability of 0.833.
NCI-H1944 was tested, and the relative viability was 1.01.
Work on NCI-H1975 yielded a relative viability of 0.911.
Work on SK-LU-1 yielded a relative viability of 1.07.
NCI-H358 was tested, and the relative viability was 0.564.
For NCI-H661, the relative viability was 0.519.
Work on RERF-LC-KJ yielded a relative viability of 0.815.

Same assay, conditions: first compound 2.53 µM
With NCI-H1793 the relative viability was 0.967.
For PC-3 [JPC-3], the relative viability was 1.06.
With EKVX the relative viability was 0.87.
Cell Line LC-2-ad has a relative viability of 0.801.
Cell Line NCI-H1944 has a relative viability of 0.953.
Cell Line NCI-H1975 has a relative viability of 0.981.
Work on SK-LU-1 yielded a relative viability of 1.21.
NCI-H358 showed a relative viability of 0.71.
In the case of NCI-H661, the relative viability is reported as 0.416.
With RERF-LC-KJ the relative viability was 0.794.

Same assay, conditions: first compound 8 µM
With NCI-H1793 the relative viability was 0.583.
PC-3 [JPC-3] showed a relative viability of 1.
In the case of EKVX, the relative viability is reported as 1.11.
LC-2-ad gave a relative viability of 0.894.
NCI-H1944 showed a relative viability of 0.82.
NCI-H1975 showed a relative viability of 0.975.
SK-LU-1 showed a relative viability of 0.795.
NCI-H358 showed a relative viability of 0.605.
NCI-H661 was tested, and the relative viability was 0.483.
In the case of RERF-LC-KJ, the relative viability is reported as 0.702.
